In patent US5356907A, “1-cycloalkylpyridones as analgesics” (priority 1989, dated 1994):
pIC50: −log10 of the molar value.

Key:
opiated K Receptor = target: T1, opiated K Receptor (Cavia porcellus, UniProt P41144); assay: Bonding to the opiated K Receptor in Vitro; format: binding; settings: displacement of 1 nM 3H-ethylketocyclazocin, guinea pig brain membranes, Tris pH 7.7, 25° C., 40 minutes
T1 construct: Membrane samples preserved at -30° C; (optionally for approximately 30 days) are used and prepared from guinea pig brains; from tissue; host or cells: guinea pig brain membranes
T1 sequence (P41144 whole entry): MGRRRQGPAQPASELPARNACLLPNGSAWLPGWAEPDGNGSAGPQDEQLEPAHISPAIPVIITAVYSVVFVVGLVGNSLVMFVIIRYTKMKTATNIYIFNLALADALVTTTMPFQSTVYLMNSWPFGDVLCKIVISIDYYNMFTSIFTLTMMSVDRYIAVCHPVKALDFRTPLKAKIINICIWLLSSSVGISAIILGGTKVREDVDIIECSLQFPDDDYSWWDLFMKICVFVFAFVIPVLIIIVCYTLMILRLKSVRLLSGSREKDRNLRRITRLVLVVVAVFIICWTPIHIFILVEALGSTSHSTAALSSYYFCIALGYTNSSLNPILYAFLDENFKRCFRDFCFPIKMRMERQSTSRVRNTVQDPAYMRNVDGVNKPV
Protocol: 1) Bonding to the opiated K Receptor in Vitro
Membrane samples preserved at -30° C. (optionally for approximately 30 days) are used and prepared from guinea pig brains.
These samples are put in suspension in Tris pH 7.7 buffer. Fractions of 2 cm^3 are distributed in hemolysis tubes and 1 nM of 9^3 H-ethylketocyclazocin and the product to be studied are added. The product is first tested at 5×10^-6 M (in triplicate). When the test product displaces more than 50% of the radioactivity linked specifically to the receptor, it is tested again according to a range of 7 doses so as to determine the dose that inhibits 50% of the radioactivity linked specifically to the receptor. Thus the 50% inhibiting concentration is determined.
The non-specific bond is determined by the addition of known product under the name U-50488 H (Lahti et al. 1982, Life Sci. 31, 2257) at 10^-5 M (in triplicate). After incubating at 25° C. for 40 minutes, returning to the water bath at 0° C. for 5 minutes, filtering under vacuum, rinsing with Tris pH 7.7 buffer, the radioactivity is counted in the presence of Trition scintillator.
The result is expressed directly as 50% inhibiting concentration (IC50), namely as the concentration of studied product expressed in nM, necessary to displace 50% of the radioactivity specifically fixed on the studied receptor.

cardiac rhythm disorders = assay: Anti-arythmic action in the rat (aconitine perfusion); format: in vivo; settings: intravenous, 5 minutes before aconitine 10 micrograms/mn, anaesthetised male rat
Protocol: 2) Anti-arythmic action in the rat
Male rate weighing 300-350 g anaesthetised by interperitonal route using 1.20 g/kg of urethane are tracheotomized and subjected to artificial respiration (40-50 insufflations of 3 ml/minute).
needles are implanted subcutaneously so as to record the rats' electrocardiogram on the DII derivation signal.
The test products are administered by intravenous route. Five minutes after administration of the product, the jugular vein is perfused with aconitine at the rate of 10 micrograms/mn and the time taken for the appearance of cardiac rhythm disorders is noted.
The results are expressed as a percentage of the increase in the time taken for cardiac rhythm disorders to appear relative to the controls and according to the dose of the test product.

In the case of `O=C1C(c2ccc(Cl)c(Cl)c2)CCCN1[C@@H]1CCCC[C@H]1N1CCCC1` (mixture of isomers) [Example 4, [Trans, (±)]-3-(3,4-dichlorophenyl)-1-[2-(1-pyrrolidinyl)-cyclohexyl]-2piperidinone], the pIC50 (opiated K Receptor) was 7.66, the “Percentage increase in time (taken for cardiac rhythm disorders to appear relative to the controls)” value (cardiac rhythm disorders; dose 2.5 mg/kg, 2.5 mg/kg) was 23% and the “Percentage increase in time (taken for cardiac rhythm disorders to appear relative to the controls)” value (cardiac rhythm disorders; dose 5 mg/kg, 5 mg/kg) was 48%.

In the case of `O=C1C(c2ccc(Cl)c(Cl)c2)CCCN1[C@@H]1CCCC[C@H]1N1CCCC1` (mixture of isomers) [Example 5, [Trans, (±)]-3-(3,4-dichlorophenyl)-1-[2-(1-pyrrolidinyl)-cyclohexyl]-2-piperidinone], the “Percentage increase in time (taken for cardiac rhythm disorders to appear relative to the controls)” value (cardiac rhythm disorders; dose 2.5 mg/kg, 2.5 mg/kg) was 26% and the “Percentage increase in time (taken for cardiac rhythm disorders to appear relative to the controls)” value (cardiac rhythm disorders; dose 5 mg/kg, 5 mg/kg) was 33%.

`COc1ccc(C2C(=O)CCN([C@@H]3CCCC[C@H]3N3CCCC3)C2=O)cc1OC` (mixture of isomers) [Example 7, [Trans,(±)]-3-(3,4-dimethoxy-phenyl)-1-[2-(1-pyrrolidinyl)-cyclohexyl]-2,4-piperidinedione] was tested, and the pIC50 (opiated K Receptor) was 9.70.

With `O=C1C(c2ccc(Cl)c(Cl)c2)=CCCN1[C@@H]1CCCC[C@H]1N1CCCC1` (relative stereo) [Example 3, [Trans, (±)]-3-(3,4-dichlorophenyl)-5,6-dihydro-1-[2-(1-pyrrolidinyl)cyclohexyl)-2-(1H)-pyridinone] the “Percentage increase in time (taken for cardiac rhythm disorders to appear relative to the controls)” value (cardiac rhythm disorders; dose 2.5 mg/kg) was 52% and the “Percentage increase in time (taken for cardiac rhythm disorders to appear relative to the controls)” value (cardiac rhythm disorders; dose 5 mg/kg) was 55%.

For `COc1ccc(C2=CCCN([C@@H]3CCCC[C@H]3N3CCCC3)C2=O)cc1OC` (relative stereo) [Example 8, [Trans-(±)]-5,6-dihydro-3-(3,4-dimethoxyphenyl)-1-[2(1-pyrrolidinyl)-cyclohexyl]-2-[1H)-pyridinone], the pIC50 (opiated K Receptor) was 8.05.
